Data taken from patent US6613317B1, “Volatile attractants for diabrotica species” (priority 1988, dated 2003).
Marks after values point to notes of the source that are not given here.

Assays:
[1] = system: western corn rootworm (WCR); test: Sticky trap attraction in corn, phenylethanol analogues (Example 6); type: in vivo, Diabrotica virgifera virgifera; conditions: 100 mg per trap, four replicates, 24 hour; for Mean number of WCR per trap (± standard deviation), column WCW: Table 17
Method: (§1) Test chemicals (purchased from Aldrich Chemical Co.; Milwaukee, Wis.) were applied by capillary micropipettes to cotton dental wicks that were attached to tops of 1.0 liter cylindrical paper cartons covered with TangleTrap™, Grand Rapids, Mich. The trapping techniques used were as previously described in Example 1. Unless otherwise indicated, all treatments were made at a dosage of 100 mg or 100 μL of attractant per trap. Control traps had untreated wicks. Four replicates of treated and untreated traps were positioned randomly 10 meters apart on top of 1 m high posts along the edges of 25-50 ha. fields of hybrid corn (Zea mays), infested with adult NCR, SCR, and WCR beetles. Several experiments detailed in the Tables were made in a 0.4 ha plot of sweet corn (Illini X-tra Sweet).
(§2) Attraction of Diabrotica species adults of the sticky traps was measured by the mean number of beetles caught after 1 day (ca. 24 hours) exposure. The significance of the treatments was determined by analysis of variance and the individual means were separated by Duncan's multiple range test (Statistical Package for the Social Sciences, Nie, et al., 2nd. ed. McGraw-Hill, New York (1975). The data was logarithmically transformed for statistical analysis. Means and standard deviations are presented for the untransformed data. Significance levels were set at P=0.05 for all statistical analyses.

[2] = system: northern corn rootworm (NCR); test: as above; type: in vivo, Diabrotica barberi; conditions: for Mean number of NCR per trap (± standard deviation) / Mean number (control subtracted) of NCR per trap: four replicates; for Mean number of NCR per trap (± standard deviation): 24 hour
Method: as §1, §2

[3] = system: NCR; test: Limit of response rating of squash blossom volatiles on sticky traps (Example 5); type: in vivo, Diabrotica barberi; conditions: 24 hour; four replicate traps; 0.01 mg to 200 mg
Method: (§3) Over 40 individual volatile chemicals have been isolated from Cucurbita maxima blossoms and circa 25 of these have been unequivocally identified (Andersen, J. F., J. Agric. Food Chem., 35:60-62 (1987): Andersen, J. F. and Metcalf, R. L., J. Chem. Ecol., 12:687-699 (1986)). The major odor components were evaluated as potential attractants for adult Diabrotica species using cylindrical sticky traps baited with dental cotton wicks (Metcalf, R. L., and Lampman, R. L., Paper submitted to J. Econ. Entomol., (1988)) containing from 0.01 mg to 200 mg of volatile compound.

[4] = system: western corn rootworm (WCR) adults; test: Sticky trap attraction in corn, estragole analogues (Example 3); type: in vivo, Diabrotica virgifera virgifera; conditions: 100 mg per trap, n = 4
Method: as §1, with “chemicals” for “chemicals (purchased from Aldrich Chemical Co.; Milwaukee, Wis.)”, “Cinnamyl alcohol, 4-methoxycinnamaldehyde, cinnamyl acetate, and 4-(4′methoxyphenyl)-3-butene-2-one which are solids at ambient temperature were prepared as standard w/v solutions in acetone prior to dosing the cotton wicks. All” for “Unless otherwise indicated, all”
as §2

[5] = system: WCR; test: Limit of response rating of squash blossom volatiles on sticky traps (Example 5); type: in vivo, Diabrotica virgifera virgifera; conditions: 24 hour; four replicate traps; 0.01 mg to 200 mg
Method: as §3

[6] = system: northern corn rootworm (NCR) adults; test: Sticky trap attraction in corn, estragole analogues (Example 3); type: in vivo, Diabrotica barberi; conditions: 100 mg per trap, n = 4
Method: as §1, with “chemicals” for “chemicals (purchased from Aldrich Chemical Co.; Milwaukee, Wis.)”, “Cinnamyl alcohol, 4-methoxycinnamaldehyde, cinnamyl acetate, and 4-(4′methoxyphenyl)-3-butene-2-one which are solids at ambient temperature were prepared as standard w/v solutions in acetone prior to dosing the cotton wicks. All” for “Unless otherwise indicated, all”
as §2

[7] = system: southern corn rootworm (SCR) adults; test: as above; type: in vivo, Diabrotica undecimpunctata howardi; conditions: 100 mg per trap, n = 4
Method: as §1, with “chemicals” for “chemicals (purchased from Aldrich Chemical Co.; Milwaukee, Wis.)”, “Cinnamyl alcohol, 4-methoxycinnamaldehyde, cinnamyl acetate, and 4-(4′methoxyphenyl)-3-butene-2-one which are solids at ambient temperature were prepared as standard w/v solutions in acetone prior to dosing the cotton wicks. All” for “Unless otherwise indicated, all”
as §2

[8] = system: SCR; test: Limit of response rating of squash blossom volatiles on sticky traps (Example 5); type: in vivo, Diabrotica undecimpunctata howardi; conditions: 24 hour; four replicate traps; 0.01 mg to 200 mg
Method: as §3

[9] = day 1 after single 100 mg dosage on cotton wick
[10] = day 2 after single 100 mg dosage on cotton wick
[11] = day 3 after single 100 mg dosage on cotton wick
[12] = day 4 after single 100 mg dosage on cotton wick
[13] = day 5 after single 100 mg dosage on cotton wick
[14] = day 6 after single 100 mg dosage on cotton wick
[15] = day 7 after single 100 mg dosage on cotton wick
[16] = day 8 after single 100 mg dosage on cotton wick
[17] = day 11 after single 100 mg dosage on cotton wick

Cc1ccc(CCO)cc1 [4-methylphenylethanol]
Mean number of WCR per trap (±standard deviation) ([1]; Table 15): 12.2 ± 5.6a per trap | Mean number of NCR per trap (± standard deviation) ([2]; Table 15, 100 mg per trap): 89.2 ± 7.8c per trap

Nc1ccc(CCO)cc1 [4-aminophenylethanol]
Mean number of WCR per trap (±standard deviation) ([1]; Table 15): 8.5 ± 3.4a per trap | Mean number of NCR per trap (± standard deviation) ([2]; Table 15, 100 mg per trap): 10.5 ± 2.1a per trap

OCCCc1ccccc1
Mean number of WCR per trap (± standard deviation), column WCW [1]: 4.0 ± 2.9a per trap | Mean number of NCR per trap (± standard deviation) ([2]; Table 17, 100 mg per trap): 36.2 ± 12.2c per trap | Mean number (control subtracted) of NCR per trap [2, 9]: 76.5 per trap | Mean number (control subtracted) of NCR per trap [2, 10]: 115.3 per trap | Mean number (control subtracted) of NCR per trap [2, 11]: 38.8 per trap | Mean number (control subtracted) of NCR per trap [2, 12]: 25.0 per trap | Mean number (control subtracted) of NCR per trap [2, 13]: 41.8 per trap | Mean number (control subtracted) of NCR per trap [2, 14]: 10.5 per trap | Mean number (control subtracted) of NCR per trap [2, 15]: 10.7 per trap | Mean number (control subtracted) of NCR per trap [2, 16]: 29.5 per trap | Mean number (control subtracted) of NCR per trap [2, 17]: 4.5 per trap

O=[N+]([O-])c1ccc(CCO)cc1 [4-nitrophenylethanol]
Mean number of WCR per trap (±standard deviation) ([1]; Table 15): 7.9 ± 5.1a per trap | Mean number of NCR per trap (± standard deviation) ([2]; Table 15, 100 mg per trap): 7.7 ± 2.7a per trap

OCCc1ccc(F)cc1 [4-fluorophenylethanol]
Mean number of WCR per trap (±standard deviation) ([1]; Table 15): 14.0 ± 12.3a per trap | Mean number of NCR per trap (± standard deviation) ([2]; Table 15, 100 mg per trap): 38.0 ± 6.2b per trap

O=CC=Cc1ccccc1 [XII, cinnamaldehyde]
Attractant Rating NCR (by limit of response) [3]: 0 (200) | Mean number of WCR adults per sticky trap (±standard deviation) after 24 hours ([4]; August 4 second year): 32.2 ± 8.5^b per sticky trap | Mean number of WCR per sticky trap after 24 hours ([4]; August 5 (Table 10)): 44.5 ± 25.5^d per sticky trap | Mean number of WCR adults per sticky trap (±standard deviation) after 24 hours ([4]; August 5 first year): 4.0 ± 1.8^b per sticky trap | Mean number of WCR (±standard deviation) per sticky trap after 24 hours ([4]; August 7 (Table 11)): 61.5 ± 15.6^b per sticky trap | Mean number of WCR adults per sticky trap (±standard deviation) after 24 hours ([4]; September 11): 1.3 ± 1.3^a per sticky trap | Attractant Rating WCR (by limit of response) [5]: +3 (3-10) | Mean number of NCR per sticky trap after 24 hours ([6]; August 5 (Table 10)): 1.2 ± 1.3^a per sticky trap | Mean number of NCR (±standard deviation) per sticky trap after 24 hours ([6]; August 7 (Table 11)): 0.3 ± 0.5^a per sticky trap | Mean number of WCR per trap (± standard deviation), column WCW [1]: 56.0 ± 34.6b per trap | Mean number of SCR adults per sticky trap (±standard deviation) after 24 hours ([7]; August 4 second year): 135.5 ± 29.3^d per sticky trap | Mean number of SCR per sticky trap after 24 hours ([7]; August 5 (Table 10)): 67.5 ± 23.1^d per sticky trap | Mean number of SCR adults per sticky trap (±standard deviation) after 24 hours ([7]; August 5 first year): 431.2 ± 120.3^d per sticky trap | Mean number of SCR (±standard deviation) per sticky trap after 24 hours ([7]; August 7 (Table 11)): 63.5 ± 25.7^c per sticky trap | Mean number of SCR adults per sticky trap (±standard deviation) after 24 hours ([7]; September 11): 24.0 ± 10.5^c per sticky trap | Mean number of NCR per trap (± standard deviation) ([2]; Table 17, 100 mg per trap): 15.5 ± 3.8b per trap | Attractant Rating SCR (by limit of response) [8]: +4 (1-3)

COc1ccc(CCO)cc1 [4-methoxyphenylethanol]
Mean number of WCR per trap (±standard deviation) ([1]; Table 15): 5.7 ± 2.8a per trap | Mean number of WCR per trap (±standard deviation) ([1]; Table 16): 3.5 ± 2.1a per trap | Mean number of WCR per trap (± standard deviation), column WCW [1]: 6.0 ± 4.2a per trap | Mean number of NCR per trap (± standard deviation) ([2]; Table 15, 100 mg per trap): 187.7 ± 62.5d* per trap | Mean number of NCR per trap (± standard deviation) ([2]; Table 16, 100 mg per trap): 60.3 ± 26.8b* per trap | Mean number of NCR per trap (± standard deviation) ([2]; Table 17, 100 mg per trap): 56.7 ± 7.5c per trap | lowest level attractive to NCR ([2]; Table 18): ≤ 0.1 mg | Mean number of NCR per trap (± standard deviation) ([2]; Table 18, 0.1 mg): 16.2 ± 1.2b per trap | Mean number of NCR per trap (± standard deviation) ([2]; Table 18, 0.3 mg): 32.7 ± 9.4c per trap | Mean number of NCR per trap (± standard deviation) ([2]; Table 18, 1 mg): 41.0 ± 23.4c per trap | Mean number of NCR per trap (± standard deviation) ([2]; Table 18, 3 mg): 72.0 ± 10.8d per trap | Mean number (control subtracted) of NCR per trap [2, 9]: 134.5 per trap | Mean number (control subtracted) of NCR per trap [2, 10]: 231.8 per trap | Mean number (control subtracted) of NCR per trap [2, 11]: 93.1 per trap | Mean number (control subtracted) of NCR per trap [2, 12]: 51.5 per trap | Mean number (control subtracted) of NCR per trap [2, 13]: 128.9 per trap | Mean number (control subtracted) of NCR per trap [2, 14]: 49.2 per trap | Mean number (control subtracted) of NCR per trap [2, 15]: 76.7 per trap | Mean number (control subtracted) of NCR per trap [2, 16]: 99.0 per trap | Mean number (control subtracted) of NCR per trap [2, 17]: 64.8 per trap

COc1cccc(CCO)c1 [3-methoxyphenylethanol]
Mean number of WCR per trap (±standard deviation) ([1]; Table 16): 3.7 ± 2.1a per trap | Mean number of NCR per trap (± standard deviation) ([2]; Table 16, 100 mg per trap): 7.2 ± 3.4a per trap

COc1ccc(CCCO)cc1 [4-methoxyphenylpropanol]
Mean number of WCR per trap (± standard deviation), column WCW [1]: 3.2 ± 2.2a per trap | Mean number of NCR per trap (± standard deviation) ([2]; Table 17, 100 mg per trap): 15.5 ± 6.2b per trap

COc1ccccc1CCO [2-methoxyphenylethanol]
Mean number of WCR per trap (±standard deviation) ([1]; Table 16): 6.0 ± 5.1a per trap | Mean number of NCR per trap (± standard deviation) ([2]; Table 16, 100 mg per trap): 13.5 ± 9.3a per trap

OCCc1ccc(Cl)cc1 [4-chlorophenylethanol]
Mean number of WCR per trap (±standard deviation) ([1]; Table 15): 13.7 ± 3.9a per trap | Mean number of NCR per trap (± standard deviation) ([2]; Table 15, 100 mg per trap): 30.0 ± 7.4b per trap
